Entries after “also recorded” stand apart in the source; their conditions may differ. Like-named read-outs stand apart in the source and are kept apart here.
Tests used:
human brain (BBB) = settings: PET, cited from earlier work; for K1, rate constant for transfer from arterial plasma into brain: human brain; for cerebral uptake / brain distribution in human brain (in words): in vivo, ref S1 Table 1
iPSC-hBBB monolayer = assay: Apparent permeability (Papp A to B) across the in vitro iPSC-hBBB model; settings: iPSC-hBBB model, PappAB
Description: (§1) On day before the co-culture establishment, rat glial cells (2 × 10^4 cells) isolated as described previously[6] were plated on 12 wells plate (Costar) in glial specific medium. After 24 hours, hiPSC-BECs (6 × 10^4cells) were plated on the upper side of a collagen-coated polyester Transwell membrane (Costar, pore size 0.4 µm; diameter 12 mm; insert growth area 1 cm^2) in 0.5 mL of endothelial medium.
(§2) Experiments were performed in triplicate for each compound.
(§3) For LC-MS/MS a sample aliquot (transfer buffer) was diluted by half with acetonitrile and then, 10 μL of this solution was injected into the analytical equipment made up a Liquid Chromatography system coupled to a triple quadrupole mass spectrometer Thermofisher TS Quantum Discovery or Waters Quattro Premier XE equipped with a electrospray ionization source. System control and data processing were carried out using Xcalibur or Masslynx software. The chromatographic separation was performed on a Waters ACQUITY UPLC BEH C18 column (2.1 mm × 50 mm, 1.7 μm) at 60 °C. A gradient of two solvent mixtures was delivered at 0.3 mL/min or 0.5 mL/min according to the analytical system. Solvent A comprised 0.1% formic acid in ammonium acetate (5 mM) and solvent B, 0.1% formic acid in acetonitrile. Molecules were ionized in positive mode. Multiple reaction monitoring mode was used for compounds quantification. For all tested compounds, a linear gradient of mobile phase A and B was optimized. Linearity of the response was verified in the range 0.05 to 5 µM through 3 experiments to be able to measure low passage. Quantification was carried out using standard calibration curve and quality control samples prepared with blank matrix (transfer buffer/acetonitrile; 1/1; v/v) spiked with compounds.

[1] = test system: in vitro primary cell-based rat BBB model; assay: Apparent permeability in the in vitro primary cell-based rat BBB model; settings: in vitro cell based rat BBB model vs iPSC-hBBB model
Description: We previously described an in vitro primary cell-based rat BBB model with relevant features of the in vivo rat BBB[6]. We therefore analyzed correlatively the permeability of a set of compounds obtained using the in vitro iPSC-hBBB model and the in vitro cell based rat BBB model.

[2] = test system: ABC transporters (P-gp) in the iPSC-hBBB model
Description: (§4) A known P-gp substrate was used to assess the asymmetry index of the iPSC- hBBB model.
(§5) The integrity of iPSC-derived human BBB model was determined by assessment of radiolabelled sucrose permeability as a paracellular marker. The transwells with hiPSC-BECs monolayers were transferred to new 12 well plates. […] After 1 hour of incubation at 37 °C with gentle rotation, 100 µL of transfer buffer from both A and B compartments were collected and counted by scintillation. The Papp value was calculated as followed: Papp=dQ/dTXAXC0 where dQ/dT is the amount of compound transported per time point; A is the membrane surface area of the insert; and Co is the donor concentration at the time point. Data were presented as the average ± SD from three monolayers. […] The propranolol permeability was also tested using the same protocol with an apical tested dose about 1 µCi/mL (48 nM) of [^3H]propranolol in transfer buffer. […] After checking the cell monolayer integrity, the monolayers were transferred to new plates. The buffer (150 mM NaCl, 5.2 mM KCl, 2.2 mM CaCl2, 0.2 mM MgCl2, 6 mM NaHCO3, 2.8 mM glucose and 5 mM Hepes) was added: 1.5 mL to the basal chamber (B) and 0.5 mL to the apical chamber (A). Experiments were performed in triplicate for each compound. […] After 60 min, aliquots were removed from the acceptor and basal chambers for drug-concentration determination by LC-MS/MS.

[3] = test system: ABC transporters in the in vitro primary rat cell based BBB model
[4] = Apparent permeability (Papp A to B) across the in vitro iPSC-hBBB model; settings: human
Description: as §1, §2, §3

ABC transporters = assay: in vitro; settings: rat
ABC transporters (P-gp) = assay: in vitro; settings: human, PappBA/PappAB efflux ratio (ER)
Description: as §4, §5

Compound	in vitro permeability across the iPSC-hBBB model (in words) (iPSC-hBBB monolayer)	permeability in the rat BBB model compared with the iPSC-hBBB model (in words) [1]	K1, rate constant for transfer from arterial plasma into brain (human brain (BBB)) [mL.cm-3.min-1]	ABC transporter substrate / interaction (in words) [2]	other results
COC[C@H]1CN(c2ccc(OCC[C@@H](O)C(F)(F)F)cc2)C(=O)O1 [befloxatone]	high permeability				K1, rate constant for transfer from arterial plasma into brain (human brain (BBB); ref unpublished data): 0.20 mL.cm-3.min-1; cerebral uptake / brain distribution in human brain (in words) (human brain (BBB)): high cerebral uptake
Cn1c(=O)c2c(ncn2C)n(C)c1=O [caffeine]		higher			
COc1ccc2c(c1)[C@]13CCCC[C@@H]1[C@H](C2)N(C)CC3 [dextromethorphan]		higher			
C#Cc1cccc(Nc2ncnc3cc(OCCOC)c(OCCOC)cc23)c1 [erlotinib]	high permeability		0.02	not in the in vitro iPSC-hBBB model	cerebral uptake / brain distribution in human brain (in words) (human brain (BBB)): low cerebral uptake; ABC transporter substrate / interaction (in words) [3]: apparently an ABC transporter substrate
CN(C)C(=O)C(CCN1CCC(O)(c2ccc(Cl)cc2)CC1)(c1ccccc1)c1ccccc1 [loperamide]	low apparent permeability	higher	0.002	likely to be also ABC transporter substrates; also recorded: apparently interacted with ABC transporters	
CC(C)NCC(O)COc1cccc2ccccc12 (stereo not shown) [propranolol]					Papp A→B at 1 h [4]: 21.7 ± 3.1 ×10⁻⁶ cm/s
CCN1CCC[C@H]1CNC(=O)c1c(O)c(Cl)cc(Cl)c1OC [raclopride]			0.09		
CC[C@]1(O)C[C@@H]2CN(CCc3c([nH]c4ccccc34)[C@@](C(=O)OC)(c3cc4c(cc3OC)N(C)[C@H]3[C@@](O)(C(=O)OC)[C@H](OC(C)=O)[C@]5(CC)C=CCN6CC[C@]43[C@@H]65)C2)C1 [vinblastine]				likely to be also ABC transporter substrates	efflux ratio (ABC transporters): ≥ 1.25; efflux ratio at 60 min (ABC transporters (P-gp)): 1.55 ± 0.4

— publication PMC6831611, “Proof-of-Concept Study of Drug Brain Permeability Between in Vivo Human Brain and an in Vitro iPSCs-Human Blood-Brain Barrier Model” (Scientific Reports, 2019)
